Among the data in ChEMBL document CHEMBL1152123, “11-Substituted 2,3-dimethoxy-8,9-methylenedioxybenzo[i]phenanthridine derivatives as novel topoisomerase I-targeting agents” (Bioorg Med Chem, 2008) are IC50 values, retold here.

The IC50 is the concentration at which inhibition is half-maximal. Lower therefore signals greater potency in that assay.

Common to all, as to format: functional, cell-based
The subject of test [1] is P388. As to the kind of experiment: cells. The conditions noted are these: Mus musculus.
Test [2] can be described thus: Cytotoxicity against human KBH5.0 cells by MTT method. The settings on record: KBH5.0 cell. A general note: Tetrazolium dyes change colour on reduction, which living cells bring about.
Test [3] concerns P388. The test is described as follows: Cytotoxicity against mouse P388 cells by MTT method.
Test [4] is described as follows: Cytotoxicity against human KB3-1 cells by MTT method. The conditions noted are these: KB 3-1.
Test [5] in a line: Cytotoxicity against camptothecin-resistant human CPT-K5 cells by MTT method.
Test [6] can be described thus: Cytotoxicity against human RPMI8402 cells by MTT method. The settings on record: RPMI 8402.
Test [7] is described as follows: Cytotoxicity against human KBV1 cells by MTT method. The conditions noted are these: KB-V1.

`COc1cc2cc(CCCN(C)C)c3c4cc5c(cc4ncc3c2cc1OC)OCO5`: the concentration for half-maximal inhibition (IC50) amounted to 200 nM in the test on P388 [1]; 130 nM in test [2]; 40 nM in the test with P388 [3]; 35 nM in test [4]; 290 nM in test [5]; 60 nM in test [6]. In test [7], this molecule displayed an IC50 of 400 nM.
As for `COc1cc2cc(C(N)=O)c3c4cc5c(cc4ncc3c2cc1OC)OCO5`, the IC50 in the test with P388 [1] is above 10000 nM; in test [2], 2700 nM; with P388 [3], 35 nM; in test [4] it was 55 nM; in test [5] it was above 10000 nM; in test [6], 140 nM. This molecule also gave an IC50 in test [7] of 400 nM.
In the case of `COc1cc2cc(CN)c3c4cc5c(cc4ncc3c2cc1OC)OCO5`, the half-inhibitory concentration (IC50) in the test with P388 [1] was 300 nM; in test [2], 210 nM; with P388 [3], 26 nM; in test [4], 30 nM; in test [5], 2100 nM; in test [6], 120 nM. Further, the IC50 in test [7] is 160 nM.
Take `COc1cc2cc(CN(C)C)c3c4cc5c(cc4ncc3c2cc1OC)OCO5`: the IC50 turned out to be 2000 nM in the test on P388 [1]; 290 nM in test [2]; 100 nM in the test on P388 [3]; 60 nM in test [4]; 2700 nM in test [5]; 100 nM in test [6]. Also, half-maximal inhibition in test [7] (IC50) required 250 nM.
Consider `COc1cc2cc(CC[N+](=O)[O-])c3c4cc5c(cc4ncc3c2cc1OC)OCO5`, for which the IC50 with P388 [1] was above 10000 nM; in test [2], 320 nM; with P388 [3], 70 nM; in test [4] it was 150 nM; in test [5], above 10000 nM; in test [6], 60 nM. The molecule further had an IC50 in test [7] of 360 nM.
As to `COc1cc2cc(CCN)c3c4cc5c(cc4ncc3c2cc1OC)OCO5`, the IC50 is 180 nM in the test with P388 [1]; 110 nM in test [2]; 14 nM with P388 [3]; 20 nM in test [4]; 200 nM in test [5]; 32 nM in test [6]. Besides, in test [7], the IC50 stood at 500 nM.
For the molecule `CNC(=O)c1cc2cc(OC)c(OC)cc2c2cnc3cc4c(cc3c12)OCO4`, the IC50 in the test on P388 [1] was above 10000 nM; in test [2], 480 nM; in test [4] it was 230 nM; in test [5], above 10000 nM; in test [6], 280 nM; in test [7], 420 nM.
Turning to `COc1cc2cc(C(=O)NCCN(C)C)c3c4cc5c(cc4ncc3c2cc1OC)OCO5`, the IC50 is 260 nM in the test on P388 [1]; 200 nM in test [2]; 15 nM in the test on P388 [3]; 27 nM in test [4]; 630 nM in test [5]; 35 nM in test [6]. The molecule further displayed an IC50 in test [7] of 1400 nM.
In the case of `COc1cc2cc(CO)c3c4cc5c(cc4ncc3c2cc1OC)OCO5`, the IC50 was above 10000 nM in the test on P388 [1]; 400 nM in test [2]; 60 nM in the test with P388 [3]; 150 nM in test [4]; above 10000 nM in test [5]; 120 nM in test [6]. In test [7], this molecule had an IC50 of 400 nM.
With `COc1cc2cc(C=O)c3c4cc5c(cc4ncc3c2cc1OC)OCO5`, the IC50 is 10000 nM with P388 [1]; 290 nM in test [2]; 120 nM with P388 [3]; 130 nM in test [4]; above 10000 nM in test [5]; 100 nM in test [6]. The same molecule registered a half-inhibitory concentration (IC50) in test [7] of 300 nM.
Regarding `COc1cc2cc(/C=C/[N+](=O)[O-])c3c4cc5c(cc4ncc3c2cc1OC)OCO5`, the IC50 with P388 [1] is 10000 nM; in test [2], 420 nM; in the test with P388 [3], 180 nM; in test [4], 180 nM; in test [5] it was above 10000 nM; in test [6], 550 nM. This molecule registered an IC50 in test [7] of 450 nM.
Regarding `COc1cc2cc(CCN(C)C)c3c4cc5c(cc4ncc3c2cc1OC)OCO5`, the IC50 with P388 [1] turned out to be 180 nM; in test [2] it was 40 nM; in the test with P388 [3] it was 15 nM; in test [4], 21 nM; in test [5], 330 nM; in test [6], 20 nM. Also, the IC50 in test [7] came out at 60 nM.
For the molecule `COc1cc2cc(/C=C/CN(C)C)c3c4cc5c(cc4ncc3c2cc1OC)OCO5`, the IC50 with P388 [1] is 350 nM; in test [2], 70 nM; in the test on P388 [3], 40 nM; in test [4] it was 30 nM; in test [5] it was 350 nM; in test [6] it was 35 nM. Further, the IC50 in test [7] was determined as 330 nM.
As to `COc1cc2cc(C(=O)N(C)C)c3c4cc5c(cc4ncc3c2cc1OC)OCO5`, the IC50 with P388 [1] was above 10000 nM; in test [2], 3600 nM; in the test with P388 [3], 980 nM; in test [4], 1200 nM; in test [5], above 10000 nM; in test [6], 1600 nM. Besides, the IC50 in test [7] was 4000 nM.
As for `CCOC(=O)c1cc2cc(OC)c(OC)cc2c2cnc3cc4c(cc3c12)OCO4`, the half-inhibitory concentration (IC50) with P388 [1] is above 10000 nM; in test [2], above 10000 nM; in the test with P388 [3] it was 4000 nM; in test [4], above 10000 nM; in test [5], above 10000 nM; in test [6] it was 10000 nM. This molecule also yielded an IC50 in test [7] above 10000 nM.
For `COc1cc2c(=O)n(CCN(C)C)c3c4cc5c(cc4ncc3c2cc1OC)OCO5`, the IC50 in the test with P388 [1] amounted to 230 nM; in test [4] it was 5 nM; in test [7], 5 nM.
On to `CC[C@@]1(O)C(=O)OCc2c1cc1n(c2=O)Cc2cc3ccccc3nc2-1` [CAMPTOTHECIN], for which the IC50 was above 10000 nM in the test on P388 [1], 4 nM with P388 [3], 15 nM in test [4] and 4 nM in test [6].
For `CCc1c2c(nc3ccc(OC(=O)N4CCC(N5CCCCC5)CC4)cc13)-c1cc3c(c(=O)n1C2)COC(=O)[C@]3(O)CC` [IRINOTECAN], the IC50 in test [2] stood at 7400 nM; in test [4], 680 nM; in test [7], 40000 nM.
With `CC[C@@]1(O)C(=O)OCc2c1cc1n(c2=O)Cc2cc3c(CN(C)C)c(O)ccc3nc2-1` [TOPOTECAN], the half-maximal inhibitory concentration (IC50) in the test on P388 [1] is above 10000 nM; in test [4], 40 nM; in test [6], 210 nM; in test [7], 440 nM.
